Test results reported in the supplement of paper PMC10307832.

Assays:
Test in all cases: relative viability (nuclei count vs DMSO), 5 days (fraction); higher = more cells survive
[1] = compound: COc1cc2nccc(Oc3ccc(NC(=O)C4(C(=O)Nc5ccc(F)cc5)CC4)cc3)c2cc1OC [Cabozantinib] + CS(=O)(=O)N1CCN(Cc2cc3nc(-c4cccc5[nH]ncc45)nc(N4CCOCC4)c3s2)CC1 [Pictilisib] (partner 1 µM)
Method in brief: (§1)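 Lung cancer cell lines, seeded in 1536-well plates, were treated the following day by pin tool with a single drug or with five library-drug doses (not always all listed) in √10 steps on top of a fixed anchor-drug dose. Cells were fixed and nuclei stained in one step after 5 days, and nuclei were counted. Relative viability is the nuclei count for treated wells divided by that for vehicle wells, reported as medians of duplicate plates.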

Kobe2602 + Pemetrexed = compound: C1=CC(=CC=C1NC(=S)NNC2=C(C=C(C=C2[N+](=O)[O-])C(F)(F)F)[N+](=O)[O-])F [Kobe2602] + Nc1nc2[nH]cc(CCc3ccc(C(=O)N[C@@H](CCC(=O)O)C(=O)O)cc3)c2c(=O)[nH]1 [Pemetrexed] (partner 0.2 µM)
Method in brief: as §1

Kobe2602 + Vorinostat = compound: C1=CC(=CC=C1NC(=S)NNC2=C(C=C(C=C2[N+](=O)[O-])C(F)(F)F)[N+](=O)[O-])F [Kobe2602] + O=C(CCCCCCC(=O)Nc1ccccc1)NO [Vorinostat] (partner 1 µM)
Method in brief: as §1

Kobe2602 + OSI-027 = compound: C1=CC(=CC=C1NC(=S)NNC2=C(C=C(C=C2[N+](=O)[O-])C(F)(F)F)[N+](=O)[O-])F [Kobe2602] + COc1cccc2cc(-c3nc([C@H]4CC[C@H](C(=O)O)CC4)n4ncnc(N)c34)[nH]c12 [OSI-027] (partner 0.5 µM)
Method in brief: as §1

| Cell Line | relative viability ([1]; first compound 0.02 µM) | relative viability ([1]; first compound 0.06325 µM) | relative viability ([1]; first compound 0.2 µM) | relative viability ([1]; first compound 0.6325 µM) | relative viability ([1]; first compound 2 µM) | relative viability (Kobe2602 + Pemetrexed; first compound 0.2 µM) | relative viability (Kobe2602 + Pemetrexed; first compound 0.6325 µM) | relative viability (Kobe2602 + Pemetrexed; first compound 2 µM) | relative viability (Kobe2602 + Pemetrexed; first compound 6.325 µM) | relative viability (Kobe2602 + Pemetrexed; first compound 20 µM) | relative viability (Kobe2602 + Vorinostat; first compound 0.2 µM) | relative viability (Kobe2602 + Vorinostat; first compound 0.6325 µM) | relative viability (Kobe2602 + Vorinostat; first compound 2 µM) | relative viability (Kobe2602 + Vorinostat; first compound 6.325 µM) | relative viability (Kobe2602 + Vorinostat; first compound 20 µM) | relative viability (Kobe2602 + OSI-027; first compound 0.2 µM) | relative viability (Kobe2602 + OSI-027; first compound 0.6325 µM) | relative viability (Kobe2602 + OSI-027; first compound 2 µM) | relative viability (Kobe2602 + OSI-027; first compound 6.325 µM) | relative viability (Kobe2602 + OSI-027; first compound 20 µM) |
| --- | --- | --- | --- | --- | --- | --- | --- | --- | --- | --- | --- | --- | --- | --- | --- | --- | --- | --- | --- | --- |
| HCC-78 | 0.178 | 0.228 | 0.174 | 0.177 | 0.192 | 0.891 | 0.923 | 0.699 | 0.868 | 0.844 | 0.485 | 0.444 | 0.433 | 0.452 | 0.507 | 0.39 | 0.375 | 0.722 | 0.385 | 0.44 |
| HCC-366 | 0.0953 | 0.105 | 0.158 | 0.0782 | 0.113 | 0.157 | 0.179 | 0.16 | 0.146 | 0.328 | 0.311 | 0.357 | 0.329 | 0.273 | 0.296 | 0.727 | 0.975 | 0.886 | 0.847 | 0.894 |
| HCC-827 | 1.08 | 0.991 | – | 0.907 | 0.816 | 0.293 | 0.241 | 0.281 | 0.261 | 0.261 | 0.891 | 0.739 | 0.804 | 0.892 | 0.945 | 0.787 | 0.743 | 0.755 | 0.762 | 0.718 |
| HOP-62 | 0.959 | 0.707 | 1.08 | 0.57 | 0.683 | 0.43 | 0.336 | 0.312 | 0.323 | 0.316 | 0.707 | 0.717 | 0.559 | 0.763 | 0.688 | 0.829 | 0.992 | 0.826 | 0.854 | 0.844 |
| IA-LM | 0.471 | 0.381 | 0.356 | 0.39 | 0.412 | – | – | – | – | – | 0.894 | 0.95 | 0.819 | 0.953 | 0.988 | – | – | – | – | – |
| LC-2-ad | 0.31 | 0.402 | 0.279 | 0.319 | 0.177 | 0.292 | 0.296 | 0.285 | 0.275 | 0.264 | 0.664 | 0.706 | 0.719 | 0.649 | 0.722 | 0.775 | 0.823 | 0.824 | 0.865 | 1.02 |
| LCLC-97TM1 | – | 0.2 | 0.152 | 0.296 | 0.32 | 0.204 | 0.15 | – | 0.14 | 0.161 | 0.692 | 0.893 | – | 0.964 | 0.722 | 0.475 | 0.488 | 0.551 | 0.556 | 0.584 |
| LCLC-103H | 0.524 | 0.622 | 0.58 | 0.606 | 0.528 | 0.494 | 0.502 | 0.454 | 0.438 | 0.449 | 0.802 | 0.813 | 0.776 | 0.839 | 0.81 | 0.466 | 0.539 | 0.492 | 0.448 | 0.497 |
| LK-2 | – | 0.632 | 0.565 | 0.625 | 0.588 | 0.259 | 0.188 | 0.279 | 0.248 | 0.328 | 0.295 | 0.334 | 0.376 | 0.305 | 0.551 | 0.231 | 0.208 | 0.239 | 0.248 | 0.212 |
| LOU-NH91 | 0.494 | 0.541 | 0.476 | 0.485 | 0.513 | 0.351 | 0.361 | 0.379 | 0.391 | 0.392 | 0.886 | 1.02 | 0.837 | 0.905 | 0.863 | 0.739 | 0.786 | 0.69 | 0.754 | 0.71 |
| LU99A | 0.248 | 0.335 | 0.299 | 0.33 | 0.346 | 0.179 | 0.169 | 0.186 | 0.207 | 0.163 | 0.491 | 0.493 | 0.539 | 0.51 | 0.53 | 0.336 | 0.329 | 0.281 | 0.342 | 0.333 |
| NCI-H522 | – | – | – | – | – | 1.06 | 1.19 | 0.974 | 1.15 | 1.01 | 0.949 | 1.05 | 0.964 | 1 | 0.898 | 0.856 | 0.687 | 0.737 | 0.636 | 0.672 |
| NCI-H727 | 0.228 | 0.493 | 0.302 | 0.357 | 0.36 | – | – | – | – | – | 1.18 | 1.31 | 1.06 | – | 1.55 | 0.57 | 0.604 | 0.744 | 0.545 | 0.888 |
| NCI-H1299 | 0.961 | 0.924 | 0.953 | 0.876 | 0.733 | – | – | – | – | – | – | – | – | – | – | – | – | – | – | – |
| NCI-H1563 | 0.572 | 0.607 | 0.637 | 0.621 | 0.66 | 0.846 | 0.717 | 0.611 | 0.786 | 0.847 | – | – | – | – | – | 0.721 | 0.743 | 0.797 | 0.757 | 0.754 |
| NCI-H1623 | – | – | – | – | – | – | – | – | – | – | – | – | – | – | – | 0.457 | 0.448 | 0.424 | 0.374 | 0.433 |
| NCI-H1648 | – | – | – | – | – | 0.759 | 0.684 | 0.519 | 0.693 | 0.809 | 0.464 | 0.441 | 0.351 | 0.334 | 0.338 | 0.246 | 0.277 | 0.248 | 0.26 | 0.25 |
| NCI-H1703 | 0.214 | 0.229 | 0.249 | 0.226 | 0.18 | – | – | – | – | – | – | – | – | – | – | – | – | – | – | – |
| NCI-H1792 | 0.334 | 0.318 | 0.301 | 0.293 | 0.268 | 0.679 | 0.964 | 0.714 | 0.887 | 0.814 | – | – | – | – | – | 0.728 | 0.732 | 0.821 | 0.5 | 0.625 |
| NCI-H2342 | – | – | – | – | – | 0.734 | 0.754 | 0.734 | 0.763 | 0.844 | 0.713 | 0.789 | 0.761 | 0.716 | 1.17 | 0.762 | 0.546 | 0.614 | 0.63 | 0.632 |
| SW 900 | – | – | – | – | – | 0.472 | 0.489 | 0.479 | 0.487 | 0.493 | 0.677 | 0.645 | 0.492 | 0.476 | 0.602 | 0.712 | 0.477 | 0.499 | 0.374 | 0.488 |
